The values that follow come from US7612045B2, “Compounds, compositions and methods for controlling biofilms and bacterial infections” (Sequoia Sciences, Inc., priority 2005, dated 2009).

One assay deals with Pseudomonas aeruginosa. The assay is described as follows: Microtiter plate biofilm formation assay (crystal violet), Pseudomonas aeruginosa. The assay is classed as cell-based. To be noted: read-out: % Biofilm Inhibition of Pseudomonas Aeruginosa. On the procedure: In this example, a concentrated solution of each compound tested was loaded separately into three separate wells of a polystyrene microtiter plate. In addition, each assay included triplicate wells correlating to negative and positive controls. […] Next, 150 μl of sterile media was added to each well (LB media with 0.2% glucose)—followed by 50 μl of the appropriate bacterial inoculum. Thus, each well contained a final volume of approximately 200 μl (not including the volume of the concentrated inhibitor). The final concentration of each biofilm inhibitor tested in the assay was 10 μg/ml. The microtiter plates were then placed on a shaker for approximately 20 to 24 hours at room temperature. After the incubation period, the microtiter plate was removed from the shaker, rinsed, and stained. During the rinsing step, the test compound, media, and bacterial inoculum solution was drained from the plate, approximately 300 μL of 0.1M phosphate buffered saline (PBS) was added to each well, which was subsequently drained from the plate. The rinsing step removed any suspended cells from the assay. An 0.1% crystal violet stain was added to each well for approximately 20 minutes. Next, the crystal violet solution was drained from the microtiter plate. The plate was rinsed with PBS as described above four (4) times to remove any excess stain from the plate. Following the PBS rinsing steps, the plate was eluted with 250 μL/well of ethanol, which improved the detection of the stain. The plate was immediately analyzed spectrophotometrically at 540 nm using a microtiter plate reader.
The average O.D. for each test compound was compared to the average O.D. of the negative control (the positive control was employed to verify proper assay function).

The next assay relates to bacterial growth. Briefly: Bacterial growth inhibition studies. The assay is classed as cell-based.
In assay [1] the test system is E. coli clinical strain UTI89. Briefly: Biofilm formation of E. coli clinical strain UTI89 in 96 well plates (crystal violet). The assay is classed as cell-based. To be noted: Escherichia coli, 24 h, one day, read-out: inhibition of biofilm formation of the UTI89 strain as compared to the controls; for inhibition at 32 µg/mL: 32 ug/ml; for inhibition at 8 µg/mL: 8 ug/ml; for inhibition at 16 µg/mL: 16 ug/ml. On the procedure:
Biofilm inhibition experiments were conducted using an assay adapted from the reported protocol described in Pratt and Kolter, 1998, Molecular Microbiology, 30: 285-293; Li et al., 2001, J. Bacteriol., 183: 897-908. E. coli clinical strain UTI89 was grown in LB in 96 well plates at room temperature for one day without shaking. To quantify the biofilm mass, the suspension culture was poured out and the biofilm was washed three times with water. The biofilm was stained with 0.1% crystal violet for 20 minutes. The plates were then washed three times with water. Then 95% ethanol was added to dissolve the dye at the bottom and on the wall and the OD reading at 540 nm was measured to quantify the total biofilm mass. Test compounds were added with the inoculation and biofilm mass was measured after one day as described above appropriate amounts of 100% ethanol were added to each sample to eliminate the effect of solvent. Each condition had 4 to 8 replicates on each plate and was performed over multiple days.

The subject of the next assay is Escherichia coli. Briefly: Microtiter plate biofilm formation assay (crystal violet), Escherichia coli. The assay is classed as cell-based. To be noted: read-out: % Biofilm Inhibition of E. coli.
The subject of the next assay is S. salivaris. The conditions noted are these: data of the '911 patent; cited from earlier work.
In a further assay the test system is S. mutans. The conditions noted are these: data of the '911 patent; cited from earlier work.
Another assay has as its system P. aeruginosa. The conditions noted are these: data of the '911 patent; cited from earlier work.
The subject of another assay is S. aureus. The conditions noted are these: data of the '911 patent; cited from earlier work.
Another assay has as its system E. coli. To be noted: data of the '911 patent; cited from earlier work.
For assay [2], the system named is methicillin-resistant Staphylococcus aureus. The conditions noted are these: cited from earlier work.
[3] abbreviates: 10 μg/ml, 20 to 24 hours at room temperature, O.D. 540 nm vs negative control.
The mark [4] stands for this setting: 10 μg/ml, same microtiter assay.

Where two headings read alike, the source gives them in different places.

In the case of `C[C@H]1[C@H](CO)CC[C@]2(C(=O)O)CC[C@]3(C)C(=CCC4[C@@]5(C)CC[C@H](O)C(C)(C)C5CC[C@]43C)[C@H]12` (some centres unmarked) [Compound 99, 30-hydroxyursolic acid], the inhibition at 10 µg/mL in the assay with Pseudomonas aeruginosa (setting [3]) came out at 30%.

`C[C@H]1[C@H](C)CC[C@]2(C(=O)O)CC[C@]3(C)C(=CC[C@@H]4[C@@]5(C)C[C@@H](O)[C@H](O)[C@@](C)(CO)[C@@H]5[C@H](O)C[C@]43C)[C@H]12` [Compound 314, Madecassic Acid]: in the assay with bacterial growth, the direct anti-bacterial activity result is on record as “do not display direct anti-bacterial activity”.

For `CC1CCC2(C(=O)O)CCC3(C)C(=CCC4C5(C)CC(O)C(O)C(C)(C)C5CCC43C)C2C1(C)O` (centres unmarked) [Compound 192, Euscaphic Acid], the inhibition at 10 µg/mL with Pseudomonas aeruginosa (setting [3]) was 32%.

On to `C[C@@H]1CC[C@]2(C(=O)O)CCC3(C)C(=CCC4C5(C)C[C@H](O)[C@@H](O)C(C)(C)C5CCC43C)C2[C@H]1C` (stereo partly drawn) [Compound 431, 2β,3α-dihydroxy-12-ursen-28-oic acid], for which the inhibition at 32 µg/mL in assay [1] is approximately 62%.

With `C[C@@H]1CCC2(C(=O)O)CC[C@]3(C)C(=CCC4[C@@]5(C)C[C@@H](O)[C@H](O)[C@@](C)(CO)C5CC[C@]43C)C2[C@H]1C` (some centres unmarked) [Compound 255, Asiatic Acid], in the assay on bacterial growth, the direct anti-bacterial activity entry is reported as “do not display direct anti-bacterial activity”. Also, the inhibition at 10 µg/mL in the assay with Escherichia coli (setting [4]) is 75%.

`CC1(C)CC[C@]2(C(=O)O)CCC3(C)C(=CCC4C5(C)C[C@@H](O)[C@H](O)C(C)(C)C5CCC43C)[C@@H]2C1` (some centres unmarked) [Compound 107, 2-hydroxyoleanic acid]: the inhibition at 10 µg/mL in the assay with Pseudomonas aeruginosa amounted to 46%.

Consider `C[C@H]1[C@H](C)CC[C@]2(C(=O)O)CC[C@]3(C)C(=CCC4[C@@]5(C)C[C@@H](O)[C@H](OC(=O)/C=C/c6ccc(O)cc6)C(C)(C)C5CC[C@]43C)[C@H]12` (stereo partly drawn) [Compound 189, 3-[4-hydroxycinnamoyl(trans-)]-2-hydroxyursolic acid], for which, in the assay on Pseudomonas aeruginosa (setting [3]), the inhibition at 10 µg/mL came to 35%.

As for `C[C@@H]1CC[C@]2(C(=O)O)CC[C@]3(C)C(=CCC4[C@@]5(C)C[C@@H](O)[C@@H](O)[C@](C)(CO)C5CC[C@]43C)C2[C@H]1C` (stereo partly drawn) [Compound 457, 2α,3α,24-trihydroxy-12-ursen-28-oic acid], in assay [1], the inhibition at 8 µg/mL is approximately 50%, the inhibition at 16 µg/mL was approximately 53% and the inhibition at 32 µg/mL was approximately 80%.

On to `C[C@@H]1CC[C@]2(C(=O)O)CC[C@]3(C)C(=CCC4[C@@]5(C)C[C@@H](O)[C@H](O)C(C)(C)C5CC[C@]43C)[C@@H]2[C@]1(C)O` (some centres unmarked) [Compound 203, Tormentic Acid], for which the inhibition at 10 µg/mL in the assay on Pseudomonas aeruginosa (setting [3]) is 43%.

For `CC1(C)CC[C@]2(C(=O)O)[C@H](O)C[C@]3(C)C(=CC[C@@H]4[C@@]5(C)CC[C@H](O)C(C)(C)[C@@H]5CC[C@]43C)[C@@H]2C1` [Compound 455, 3β,16α-dihydroxyolean-12-en-28-oic acid], in [1], the inhibition at 8 µg/mL is approximately 27%, the inhibition at 16 µg/mL is approximately 50% and the inhibition at 32 µg/mL was approximately 80%.

In the case of `CO[C@H]1C[C@@]2(C)C(CC[C@]3(C)C2CC=C2C4[C@@H](C)[C@H](C)CCC4(C(=O)O)CC[C@]23C)C(C)(C)[C@@H]1O` (stereo partly drawn) [Compound 410, 2β-methoxy-3α-hydroxy-12-ursen-28-oic acid], the inhibition at 32 µg/mL in [1] is approximately 38%.

Regarding `C[C@@H]1[C@H]2C3=CC[C@@H]4[C@@]5(C)CC[C@H](OC(=O)/C=C\c6ccc(O)cc6)C(C)(C)[C@@H]5CC[C@@]4(C)[C@]3(C)CC[C@@]2(C(=O)O)CC[C@]1(C)O` (relative stereo) [Compound 188, 3-[4-Hydroxycinnamoyl(cis-)], 20-hydroxy-ursolic acid], the inhibition at 10 µg/mL with Pseudomonas aeruginosa (setting [3]) worked out at 62%.

Consider `C[C@H]1[C@H](C)CC[C@]2(C(=O)O)CC[C@]3(C)C(=CC[C@@H]4[C@@]5(C)CC[C@H](O)C(C)(C)[C@@H]5CC[C@]43C)[C@H]12` [Compound 110, Ursolic Acid], for which the “Growth inhibition of S. salivaris” value in the assay with S. salivaris is reported as “completely inhibited”. The “Growth inhibition of S. mutans” value in the assay with S. mutans is “completely inhibited”. Moreover, the “Growth inhibition of P. aeruginosa” value with P. aeruginosa is recorded as “failed to inhibit”. In addition, the “Growth inhibition of S. aureus” value in the assay with S. aureus was “failed to inhibit”. The inhibition at 10 µg/mL in the assay on Escherichia coli (setting [4]) amounted to 80%. For the same compound, in the assay with E. coli, the “Growth inhibition of E. coli” value is “failed to inhibit”.

For the compound `C[C@@H]1CC[C@]2(C(=O)O)CC[C@]3(C)C(=CCC4[C@@]5(C)CC[C@H](OC(=O)OC(C)(C)C)C(C)(C)C5CC[C@]43C)C2[C@H]1C` (stereo partly drawn) [3β-O-tert-butyloxycarbonyl-ursolic acid], in [1], the inhibition at 32 µg/mL was approximately 46%.

For `CO[C@H]1/C=C/O[C@@]2(C)Oc3c(C)c(O)c4c(O)c(c(/C=N/N5CCN(C)CC5)c(O)c4c3C2=O)NC(=O)/C(C)=C\C=C\[C@H](C)[C@H](O)[C@@H](C)[C@@H](O)[C@@H](C)[C@H](OC(C)=O)[C@@H]1C` [rifampin], in assay [2] (biofilm, urinary catheters), the “Eradication of MRSA in a biofilm” value is listed as “unable to eradicate”. In addition, the “Activity against MRSA planktonic, or suspended cells” value in assay [2] (planktonic cells) is “effective”.

On to `CC1(C)CC[C@]2(C(=O)O)CC[C@]3(C)C(=CC[C@@H]4[C@@]5(C)CC[C@H](O)C(C)(C)[C@@H]5CC[C@]43C)[C@@H]2C1` [Compound 225, Oleanolic Acid], for which the “Growth inhibition of S. salivaris” value with S. salivaris was “incomplete inhibition”. Further, the “Growth inhibition of S. mutans” value in the assay with S. mutans is listed as “incomplete inhibition”. In addition, the “Growth inhibition of P. aeruginosa” value in the assay with P. aeruginosa is “failed to inhibit”. In the assay on S. aureus, the “Growth inhibition of S. aureus” value is “failed to inhibit”. For the same compound, the inhibition at 10 µg/mL in the assay with Escherichia coli (setting [4]) and in the assay on Pseudomonas aeruginosa (setting [3]) was 35% in each case. Besides, the “Growth inhibition of E. coli” value in the assay with E. coli is recorded as “failed to inhibit”.

Turning to `CC1(C)CC[C@@]2(C(=O)O)C(O)C[C@]3(C)C(=CCC4[C@@]5(C)CC[C@H](O)[C@@](C)(CO)C5CC[C@]43C)C2C1` (some centres unmarked) [Compound 323, Caulophyllogenin], in the assay with Escherichia coli (setting [4]), the inhibition at 10 µg/mL turned out to be 35%.

As for `C[C@@H]1CC[C@]2(C(=O)O)CCC3(C)C(=CCC4C5(C)C[C@@H](O)[C@H](O)C(C)(C)C5CCC43C)C2[C@H]1C` (stereo partly drawn) [Compound 108, 2α,3β-dihydroxy-12-ursen-28-oic acid], the inhibition at 20 µg/mL in assay [1] (20 ug/ml) was approximately 85%. For the same compound, the inhibition at 10 µg/mL came out at 74% in the assay on Escherichia coli (setting [4]) and 52% with Pseudomonas aeruginosa (setting [3]).

On to `C[C@@H]1[C@H]2C3=CCC4[C@@]5(C)CC[C@H](O)C(C)(C)C5CC[C@@]4(C)[C@]3(C)CC[C@@]2(C(=O)O)CC[C@]1(C)O` (some centres unmarked) [Compound 195, 20B-hydroxyursolic acid], for which, in the assay on Pseudomonas aeruginosa (setting [3]), the inhibition at 10 µg/mL turned out to be 25%.

Turning to `C=C1CCC2(C(=O)O)CCC3(C)C(=CCC4C5(C)CCC(O)C(C)(C)C5CCC43C)C2C1C` (centres unmarked) [Compound 430, 3-hydroxy-12,20(30) ursadien-28-oic acid], the inhibition at 10 µg/mL with Escherichia coli stood at 60%.

For `C[C@@H]1CC[C@]2(C(=O)O)CC[C@]3(C)C(=CCC4[C@]5(C)C(CC[C@]43C)[C@@](C)(CO)[C@H](O)[C@H](O)[C@H]5O)C2[C@H]1C` (stereo partly drawn) [Compound 458, 1β,2α,3α,24-tetrahydroxy-12-ursen-28-oic acid], the inhibition at 32 µg/mL in [1] was approximately 45%.

For `CO[C@H]1C[C@@]2(C)C(CC[C@]3(C)C2CC=C2C4[C@@H](C)[C@H](C)CC[C@]4(C(=O)O)CC[C@]23C)C(C)(C)[C@@H]1OC(=O)/C=C/c1ccccc1` (stereo partly drawn) [2β-methoxy-3α-cinnamoyl-12-ursen-28-oic acid], the inhibition at 32 µg/mL in assay [1] is approximately 40%.
